From patent publication US9902728B2, “Pyrrolo and pyrazolopyrimidines as ubiquitin-specific protease 7 inhibitors” (Forma Therapeutics, Inc., priority 2014, dated 2018)

Target: T1, USP7 (Homo sapiens, UniProt Q93009)
T1 construct: USP7, construct USP7 (208-1102) 6*His, Viva Biotech; 6xHis (C); purchased Viva Biotech
Experiment: USP7 Assay A (Ubitquin-Rhodamine 110 Assay)
Assay type: biochemical
Details: USP7 activity in USP7 assay A and B (table does not say which assay per compound); read-out: USP7_IC50
Method: Each assay was performed in a final volume of 15 μL in assay buffer containing 20 mM Tris-HCl (pH 8.0, (1M Tris-HCl, pH 8.0 solution; Corning 46-031-CM)), 1 mM GSH (L-Glutathione reduced; Sigma #G4251), 0.03% BGG ([…], Sigma, #G7516-25G), and 0.01% Triton X-100 (Sigma, #T9284-10L). […] 5 μL of 2× enzyme was added to assay plates (pre-stamped with compound) preincubated with USP7 for 30 minutes and then 5 μL of 2×Ub-Rh110 was added to assay plates. […] Fluorescence was read on the Envision (Excitation at 485 nm and Emission at 535 nm; Perkin Elmer) or on the PheraSTAR (Excitation at 485 nm and Emission at 535 nm; BMG Labtech).
Data from USP7 Assays A and B were reported as percent inhibition (inh) compared with control wells based on the following equation: % inh=1−((FLU−AveLow)/(AveHigh−AveLow)) where FLU=measured Fluorescence (See Tables 6-10). AveLow=average Fluorescence of no enzyme control (n=16). AveHigh=average Fluorescence of DMSO control (n=16). […] Data is fitted using the Levenburg Marquardt algorithm.

T1 sequence (Q93009 208-1102): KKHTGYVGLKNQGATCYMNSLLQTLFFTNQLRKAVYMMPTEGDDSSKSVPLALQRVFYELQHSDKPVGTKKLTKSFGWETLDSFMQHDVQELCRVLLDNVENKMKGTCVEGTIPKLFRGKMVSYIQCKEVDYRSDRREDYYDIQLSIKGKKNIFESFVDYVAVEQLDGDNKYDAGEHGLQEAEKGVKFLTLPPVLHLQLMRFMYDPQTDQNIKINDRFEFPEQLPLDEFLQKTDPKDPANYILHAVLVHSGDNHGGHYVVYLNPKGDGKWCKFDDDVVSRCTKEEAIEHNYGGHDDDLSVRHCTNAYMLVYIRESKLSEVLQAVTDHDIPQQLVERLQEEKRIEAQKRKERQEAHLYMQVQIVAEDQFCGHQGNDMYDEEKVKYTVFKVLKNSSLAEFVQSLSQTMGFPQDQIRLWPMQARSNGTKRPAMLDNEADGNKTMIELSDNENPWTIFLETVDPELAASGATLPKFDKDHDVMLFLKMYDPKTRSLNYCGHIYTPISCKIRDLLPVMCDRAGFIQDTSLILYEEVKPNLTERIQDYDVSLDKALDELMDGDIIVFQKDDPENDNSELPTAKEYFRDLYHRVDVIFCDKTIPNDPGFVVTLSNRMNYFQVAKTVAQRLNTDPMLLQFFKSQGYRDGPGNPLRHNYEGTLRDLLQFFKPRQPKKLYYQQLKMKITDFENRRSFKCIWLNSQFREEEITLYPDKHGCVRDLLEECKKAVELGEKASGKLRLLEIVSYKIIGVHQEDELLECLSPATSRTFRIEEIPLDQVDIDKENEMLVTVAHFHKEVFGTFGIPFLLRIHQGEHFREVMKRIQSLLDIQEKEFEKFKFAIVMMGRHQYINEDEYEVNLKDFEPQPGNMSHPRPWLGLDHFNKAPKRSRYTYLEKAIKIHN

Row | SMILES | IC50 [nM]
1 | Cn1cc(-c2ccc(-n3ncc4c(=O)n(CC5(O)CCN(C(=O)c6ccc(F)cc6)CC5)cnc43)cc2)cn1 [Compound I-1672] | 1000 to 10000
2 | O=C(C1CC1)N1CCC(O)(Cn2cnc3c(cnn3-c3ccc(-n4cc(OCCO)cn4)cc3)c2=O)CC1 [Compound I-977] | 1000 to 10000
3 | O=C(C1CC(Nc2cccnc2)C1)N1CCC(O)(Cn2cnc3c(cnn3-c3ccc(F)cc3)c2=O)CC1 (stereo not drawn) [Compound I-1031] | 200 to 1000
4 | C[C@@H](CC(=O)N1CCC(O)(Cn2cnc3c(cnn3-c3ccc(N4CC[C@](C)(O)C4)cc3)c2=O)CC1)n1cccn1 [Compound I-837] | < 200
5 | Cc1nccn1-c1ccc(-n2ncc3c(=O)n(CC4(O)CCN(C(=O)c5ccc(F)cc5)CC4)cnc32)cc1 [Compound I-988] | 1000 to 10000
6 | CC1(C(=O)N2CCC(O)(Cn3cnc4c(cnn4-c4ccc(-c5cnn(C(F)F)c5)cc4)c3=O)CC2)CCC1 [Compound I-1721] | < 200
7 | O=C(c1cnc(N2CCC(O)CC2)o1)N1CCC(O)(Cn2cnc3c(cnn3-c3ccc(F)cc3)c2=O)CC1 [Compound I-915] | 1000 to 10000
8 | O=C(c1ccc(F)cc1)N1CCC(O)(Cn2cnc3c(cnn3-c3ccc(OCC4(F)CCOCC4)cc3)c2=O)CC1 [Compound I-693] | 200 to 1000
9 | CNC1CCN(c2ccc(-c3ccc(-n4ncc5c(=O)n(CC6(O)CCN(C(=O)C7CC7)CC6)cnc54)cc3)cn2)C1 (stereo not drawn) [Compound I-685] | < 200
10 | Cn1ccc2c(=O)n(CC3(O)CCN(C(=O)CC(C(F)F)n4ccc(F)n4)CC3)cnc21 (single isomer, unassigned) [Compound I-1696] | > 10000
11 | Cc1nc2n(n1)CCN(c1ccc(-n3ncc4c(=O)n(CC5(O)CCN(C(=O)c6ccc(F)cc6)CC5)cnc43)cc1)C2 [Compound I-1176] | 1000 to 10000
12 | CC1(C(=O)N2CCC(O)(Cn3cnc4c(cnn4-c4cccc(N5CCC(C#N)CC5)c4)c3=O)CC2)CC1 [Compound I-1751] | 200 to 1000
13 | C[C@H](CC(=O)N1CCC(O)(Cn2cnc3c(cnn3-c3ccc(F)cc3)c2=O)CC1)n1ccc(F)n1 [Compound I-1028] | < 200
14 | O=C(C1CC(Nc2ccc(F)cn2)C1)N1CCC(O)(Cn2cnc3c(cnn3-c3ccc(F)cc3)c2=O)CC1 (stereo not drawn) [Compound I-1032] | 200 to 1000
15 | O=C(c1ccc(F)cc1)N1CCC(O)(Cn2cnc3c(cnn3-c3ccc(-c4cnn(C5CCS(=O)(=O)CC5)c4)cc3)c2=O)CC1 [Compound I-1744] | 200 to 1000
16 | CC1(C(=O)N2CCC(O)(Cn3cnc4c(cnn4-c4cccc(N5CC(C(C)(C)O)C5)c4)c3=O)CC2)CC1 [Compound I-1676] | < 200
17 | CN1CCC(Oc2ccc(C(=O)N3CCC(O)(Cn4cnc5c(cnn5-c5ccc(Cl)cc5)c4=O)CC3)cn2)C1 (stereo not drawn) [Compound I-920] | 1000 to 10000
18 | Cn1cc(C(=O)N2CCC(O)(Cn3cnc4c(ccn4-c4ccc(F)cc4)c3=O)CC2)cn1 [Compound I-1078] | 200 to 1000
19 | O=C(OCCCN1CCCC1)N1CCC(O)(Cn2cnc3c(cnn3-c3ccc(F)cc3)c2=O)CC1 [Compound I-486, 3-(Pyrrolidin-1-yl)propyl 4-((1-(4-fluorophenyl)-4-oxo-1,4-dihydro-5H-pyrazolo[3,4-d]pyrimidin-5-yl)methyl)-4-hydroxypiperidine-1-carboxylate] | 1000 to 10000
20 | Cc1cnc(-c2ccc(C(=O)N3CCC(O)(Cn4cnc5c(cnn5-c5ccc(Cl)cc5)c4=O)CC3)cc2)n1C [Compound I-1099] | 1000 to 10000
21 | O=C(C1CCC(Nc2cccc(F)n2)CC1)N1CCC(O)(Cn2cnc3c(cnn3-c3ccc(F)cc3)c2=O)CC1 (stereo not drawn) [Compound I-1024] | < 200
22 | CN[C@H]1CCN(c2ccc(-c3ccc(-n4ncc5c(=O)n(CC6(O)CCN(C(=O)C7CC7)CC6)cnc54)cc3)cn2)C1 [Compound I-684] | < 200
23 | Cn1cc(C(=O)N2CCC(O)(Cn3cnc4c(cnn4-c4ccc(F)cc4)c3=O)CC2)c(Cc2ccccc2)n1 [Compound I-1161] | < 200
24 | CN1CC2CCC(C1)N2c1ccc(C(=O)N2CCC(O)(Cn3cnc4c(cnn4-c4ccc(F)cc4)c3=O)CC2)cc1 [Compound I-1681] | 1000 to 10000
25 | CC1(C(=O)N2CCC(O)(Cn3cnc4c(cnn4-c4ccc(N5CCN(C6COC6)CC5)cc4)c3=O)CC2)CC1 [Compound I-1701] | 200 to 1000
26 | CC1(C(=O)N2CCC(O)(Cn3cnc4c(cnn4-c4cccc(N5CC(F)C5)c4)c3=O)CC2)CC1 [Compound I-1680] | 200 to 1000
27 | O=C(C1CCc2cn[nH]c2C1)N1CCC(O)(Cn2cnc3c(cnn3-c3ccc(F)cc3)c2=O)CC1 (stereo not drawn) [Compound I-724] | 200 to 1000
28 | O=C(c1ccc(N2CCN3CCCC3C2)cc1)N1CCC(O)(Cn2cnc3c(cnn3-c3ccc(F)cc3)c2=O)CC1 (stereo not drawn) [Compound I-1735] | 1000 to 10000
29 | C[C@@H]1CN(c2ccc(-n3ncc4c(=O)n(CC5(O)CCN(C(=O)C6(C)CC6)CC5)cnc43)cc2)CCN1C [Compound I-1640] | < 200
30 | O=C(C[C@H](C(F)F)n1ccc(F)n1)N1CCC(O)(Cn2cnc3c(cnn3-c3ccc(N4CC5CC5C4)cc3)c2=O)CC1 (stereo partly drawn) [Compound I-785] | 200 to 1000

Same assay, conditions: USP7 assay A and B (table does not say which assay per compound); read-out: USP7_IC50

Row | SMILES | IC50 [nM]
31 | COc1ccc(C(=O)N2CCC(O)(Cn3cnc4c(cnn4-c4ccc(F)cc4)c3=O)CC2)cc1 [Compound I-267] | 200 to 1000
32 | O=C(C1CC1)N1CCC(O)(Cn2cnc3c(cnn3-c3ccc(-c4ccccc4)cc3)c2=O)CC1 [Compound I-276] | 1000 to 10000
33 | Cc1ccc(-n2ncc3c(=O)n(CC4(O)CCN(C(=O)c5ccc(Oc6ccccn6)cc5)CC4)cnc32)cc1 [Compound I-1510] | 200 to 1000
34 | Cn1ncc2c(=O)n(CC3(O)CCN(C(=O)C[C@@H](c4ccccc4)C(F)(F)F)CC3)cnc21 [Compound I-861] | > 10000
35 | Cc1ccc(-n2ncc3c(=O)n(CC4(O)CCN(C(=O)C[C@H](C(F)F)n5cccn5)CC4)cnc32)cc1 [Compound I-1060] | < 200
36 | O=C(c1ccc(Oc2ccccc2)cc1)N1CCC(O)(Cn2cnc3c(cnn3-c3ccccc3)c2=O)CC1 [Compound I-73] | 200 to 1000
37 | NCc1cccc(C(=O)N2CCC(O)(Cn3cnc4c(cnn4-c4ccccc4)c3=O)CC2)c1 [Compound I-20] | 1000 to 10000
38 | O=C(c1ccc(C2CC2)cc1)N1CCC(O)(Cn2cnc3c(cnn3-c3ccc(F)cc3)c2=O)CC1 [Compound I-304] | 1000 to 10000
39 | Cc1ccc(-n2ncc3c(=O)n(CC4(O)CCN(C(=O)c5ccc(OC6CN(C)C6)cc5)CC4)cnc32)cc1 [Compound I-1142] | 1000 to 10000
40 | CS(=O)(=O)Nc1ccc(C(=O)N2CCC(O)(Cn3cnc4c(cnn4-c4ccccc4)c3=O)CC2)cc1 [Compound I-164] | 200 to 1000
41 | NC1(c2cccc(-c3ccc(-n4ncc5c(=O)n(CC6(O)CCN(C(=O)C7CC7)CC6)cnc54)cc3)c2)COC1 [Compound I-691] | 1000 to 10000
42 | COc1ccc(C(=O)N2CCC(O)(Cn3cnc4c(cnn4-c4ccccc4)c3=O)CC2)cc1 [Compound I-157] | 200 to 1000
43 | CN(C)C(=O)N1CCC(O)(Cn2cnc3c(cnn3-c3cccc(-n4cc(Cl)cn4)c3)c2=O)CC1 [Compound I-1666] | > 10000
44 | O=C(C1CC1)N1CCC(O)(Cn2cnc3c(cnn3-c3ccc(C4CCNCC4)cc3)c2=O)CC1 [Compound I-843, 5-((1-(cyclopropanecarbonyl)-4-hydroxypiperidin-4-yl)methyl)-1-(4-(piperidin-4-yl)phenyl)-1H-pyrazolo[3,4-d]pyrimidin-4(5H)-one] | 200 to 1000
45 | CC(=O)Nc1cccc(C(=O)N2CCC(O)(Cn3cnc4c(cnn4-c4ccccc4)c3=O)CC2)c1 [Compound I-181] | 1000 to 10000
46 | CC(C)(C)c1ccc(-n2ncc3c(=O)n(CC4(O)CCN(C(=O)C5CC5)CC4)cnc32)cc1 [Compound I-25] | 200 to 1000
47 | CC(CC(=O)N1CCC(O)(Cn2cnc3c(cnn3-c3ccc(F)cc3)c2=O)CC1)N1CC2CCCC2C1 (stereo not drawn) [Compound I-523] | > 10000
48 | O=C(c1ccc(Cl)cc1Cl)N1CCC(O)(Cn2cnc3c(cnn3-c3ccccc3)c2=O)CC1 [Compound I-224] | 200 to 1000
49 | CC(F)(F)c1ccc(C(=O)N2CCC(O)(Cn3cnc4c(cnn4-c4ccccc4)c3=O)CC2)cc1 [Compound I-294] | 1000 to 10000
50 | Cc1nc(C)c(C(=O)N2CCC(O)(Cn3cnc4c(cnn4-c4ccccc4)c3=O)CC2)s1 [Compound I-230] | 1000 to 10000
51 | CN(C)C1CCN(C(=O)c2ccc(-n3ncc4c(=O)n(CC5(O)CCN(C(=O)C6CC6)CC5)cnc43)cc2)CC1 [Compound I-1496] | 1000 to 10000
52 | Cc1cnc(C(=O)N2CCC(O)(Cn3cnc4c(cnn4-c4ccccc4)c3=O)CC2)cn1 [Compound I-227] | > 10000
53 | O=C(c1ccc(F)cc1)N1CCC(O)(Cn2cnc3c(cnn3-c3ccccc3)c2=O)CC1 [Compound I-190] | 200 to 1000
54 | O=C(C1CC1)N1CCC(O)(Cn2cnc3c(cnn3-c3cccc(-c4cc(F)ccc4CO)c3)c2=O)CC1 [Compound I-403] | 1000 to 10000
55 | CC(O)(c1ccc(C(=O)N2CCC(O)(Cn3cnc4c(cnn4-c4ccc(F)cc4)c3=O)CC2)cc1)C(F)(F)F (stereo not drawn) [Compound I-526] | 1000 to 10000
56 | C#CC(=O)NC1CC(C(=O)N2CCC(O)(Cn3cnc4c(cnn4-c4ccc(-c5ccccc5)cc4)c3=O)CC2)C1 (stereo not drawn) [Compound I-658] | 1000 to 10000
57 | C=CC(=O)N1CCC1C(=O)N1CCC(O)(Cn2cnc3c(cnn3-c3ccc(-c4ccccc4)cc3)c2=O)CC1 (stereo not drawn) [Compound I-657] | 200 to 1000
